Test results from US20250176599A1, “FLAVOR COMPOSITION AND FOOD AND BEVERAGE” (TAKASAGO INTERNATIONAL CORPORATION, priority 2021, published 2025).

Tests used:
[1] = Sensory evaluation of aqueous solution V containing 1-octen-3-ol 10 ppb: off-flavor intensity and masking component intensity; settings: 1-octen-3-ol 10 ppb, average score 0-4
How it was run: (§1)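 8 trained panelists; degradant in ion-exchanged water + nootkatone. Off-flavor 0–4, relative (no masker = 4, water = 0); masker flavor 0–4, absolute.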

[2] = Sensory evaluation of aqueous solution VI containing 1,5-octadien-3-ol 10 ppb: off-flavor intensity and masking component intensity; settings: aqueous solution VI, 1,5-octadien-3-ol 10 ppb, average score 0-4
How it was run: as §1

[3] = Overall conclusion of the sensory evaluation across aqueous solutions I to VI
How it was run: as §1

[4] = Sensory evaluation of aqueous solution I containing (E)-2-nonenal 1 ppb: off-flavor intensity and masking component intensity; settings: (E)-2-nonenal 1 ppb, average score 0-4
How it was run: as §1

[5] = Sensory evaluation of aqueous solution III containing 1-octen-3-one 1 ppb: off-flavor intensity and masking component intensity; settings: 1-octen-3-one 1 ppb, average score 0-4
How it was run: as §1

[6] = Sensory evaluation of aqueous solution IV containing 1,5-octadien-3-one 100 ppt: off-flavor intensity and masking component intensity; settings: aqueous solution IV, 1,5-octadien-3-one 100 ppt, average score 0-4
How it was run: as §1

[7] = Sensory evaluation of aqueous solution II containing (E)-2-octenal 10 ppb: off-flavor intensity and masking component intensity; settings: (E)-2-octenal 10 ppb, average score 0-4
How it was run: as §1

CC(=O)/C=C/C1C(C)=CCCC1(C)C (stereo not drawn) [α-Ionone, α-ionone]
Off-Flavor Intensity ([1]; 0.1 ppt added): 3.1 points | Off-Flavor Intensity ([1]; 1 ppb added): 1.9 points | Off-Flavor Intensity ([1]; 1 ppm added): 0.5 points | Off-Flavor Intensity ([1]; 1 ppt added): 3.0 points | Off-Flavor Intensity ([1]; 10 ppb added): 1.5 points | Off-Flavor Intensity ([1]; 10 ppm added): 0.0 points | Off-Flavor Intensity ([1]; 10 ppt added): 2.5 points | Off-Flavor Intensity ([1]; 100 ppb added): 1.0 points | Off-Flavor Intensity ([1]; 100 ppt added): 2.3 points | Off-Flavor Intensity ([2]; 0.1 ppt added): 3.1 points | Off-Flavor Intensity ([2]; 1 ppb added): 1.8 points | Off-Flavor Intensity ([2]; 1 ppm added): 0.1 points | Off-Flavor Intensity ([2]; 1 ppt added): 2.9 points | Off-Flavor Intensity ([2]; 10 ppb added): 1.5 points | Off-Flavor Intensity ([2]; 10 ppm added): 0.0 points | Off-Flavor Intensity ([2]; 10 ppt added): 2.5 points | Off-Flavor Intensity ([2]; 100 ppb added): 0.8 points | Off-Flavor Intensity ([2]; 100 ppt added): 2.0 points | concentration that masks the off-flavor and does not affect the flavor of the food and/or beverage itself, lower limit [3]: ≥ 1 ppt | concentration that masks the off-flavor and does not affect the flavor of the food and/or beverage itself, upper limit [3]: ≤ 100 ppb | Off-Flavor Intensity ([4]; 0.1 ppt added): 3.9 points | Off-Flavor Intensity ([4]; 1 ppb added): 2.3 points | Off-Flavor Intensity ([4]; 1 ppm added): 0.6 points | Off-Flavor Intensity ([4]; 1 ppt added): 3.6 points | Off-Flavor Intensity ([4]; 10 ppb added): 1.8 points | Off-Flavor Intensity ([4]; 10 ppm added): 0.3 points | Off-Flavor Intensity ([4]; 10 ppt added): 3.1 points | Off-Flavor Intensity ([4]; 100 ppb added): 1.3 points | Off-Flavor Intensity ([4]; 100 ppt added): 2.6 points | Off-Flavor Intensity ([5]; 0.1 ppt added): 3.6 points | Off-Flavor Intensity ([5]; 1 ppb added): 2.4 points | Off-Flavor Intensity ([5]; 1 ppm added): 0.8 points | Off-Flavor Intensity ([5]; 1 ppt added): 3.4 points | Off-Flavor Intensity ([5]; 10 ppb added): 1.9 points | Off-Flavor Intensity ([5]; 10 ppm added): 0.1 points | Off-Flavor Intensity ([5]; 10 ppt added): 3.0 points | Off-Flavor Intensity ([5]; 100 ppb added): 1.6 points | Off-Flavor Intensity ([5]; 100 ppt added): 2.8 points | Off-Flavor Intensity ([6]; 0.1 ppt added): 3.5 points | Off-Flavor Intensity ([6]; 1 ppb added): 2.4 points | Off-Flavor Intensity ([6]; 1 ppm added): 1.0 points | Off-Flavor Intensity ([6]; 1 ppt added): 3.4 points | Off-Flavor Intensity ([6]; 10 ppb added): 2.1 points | Off-Flavor Intensity ([6]; 10 ppm added): 0.1 points | Off-Flavor Intensity ([6]; 10 ppt added): 3.1 points | Off-Flavor Intensity ([6]; 100 ppb added): 1.6 points | Off-Flavor Intensity ([6]; 100 ppt added): 2.9 points | Off-Flavor Intensity ([7]; 0.1 ppt added): 3.1 points | Off-Flavor Intensity ([7]; 1 ppb added): 1.9 points | Off-Flavor Intensity ([7]; 1 ppm added): 0.1 points | Off-Flavor Intensity ([7]; 1 ppt added): 2.9 points | Off-Flavor Intensity ([7]; 10 ppb added): 1.5 points | Off-Flavor Intensity ([7]; 10 ppm added): 0.0 points | Off-Flavor Intensity ([7]; 10 ppt added): 2.5 points | Off-Flavor Intensity ([7]; 100 ppb added): 0.8 points | Off-Flavor Intensity ([7]; 100 ppt added): 2.4 points
